Columns and labels:
Type in all cases: in vivo
Tumor cells PAN02 = assay: Anti-tumor effect in PAN02 tumor-bearing mice (alone and combined with PD-1 monoclonal antibody); conditions: for Tumor inhibition rate PAN02: female C57BL/6J mice, by tumor weight vs control group, compounds 150 mg/kg orally every day, PD-1 monoclonal antibody 10 mg/kg intraperitoneally every three days, combination: both
Excerpt: (§1) Tumor cells B16F10, LLC, PAN02, H22, CT26, MFC, and GL261 (purchased from Biological Industries) in good growth status were collected, separately washed twice with 1×PBS, and a total number of the cells was counted with a cell counter, and a cell solution was separately diluted with 1×PBS to obtain a cell suspension of 1×10^7 cells/mL. The mice used in this experiment were purchased from Beijing Vital River Laboratory (Beijing, China). The above different types of tumor cells were inoculated into different types of mice to produce corresponding tumor-bearing mice, and the correspondences are as follows. Tumor cell B16F10 corresponds to female mice C57BL/6 aged 6-8 weeks; Tumor cell LLC corresponds to female mice Balb/c aged 6-8 weeks; Tumor cell PAN02 corresponds to female mice C57BL/6J aged 6-8 weeks; Tumor cell H22 corresponds to female mice C57BL/6 aged 6-8 weeks; Tumor cell CT26 corresponds to female mice Balb/c aged 6-8 weeks; Tumor cell MFC corresponds to female mice BALB/c-nu/nu aged 6-8 weeks; and Tumor cell GL261 corresponds to female mice C57BL/6 aged 6-8 weeks. […] After the experiment was completed, the mice were euthanized, tumor tissues thereof were collected, and volume and weight of the tumor tissues were tested to calculate a tumor inhibition rate. Tumor inhibition rate=(1-tumor weight of treatment group/tumor weight of control group)×100%

Tumor cells LLC = assay: Anti-tumor effect in LLC tumor-bearing mice (alone and combined with PD-1 monoclonal antibody); conditions: female Balb/c mice; by tumor weight vs control group; compounds 150 mg/kg orally every day; PD-1 monoclonal antibody 10 mg/kg intraperitoneally every three days; combination: both
Excerpt: as §1

Tumor cells MFC = assay: Anti-tumor effect in MFC tumor-bearing mice (alone and combined with PD-1 monoclonal antibody); conditions: female BALB/c-nu/nu mice; by tumor weight vs control group; compounds 150 mg/kg orally every day; PD-1 monoclonal antibody 10 mg/kg intraperitoneally every three days; combination: both
Excerpt: as §1

Tumor cells CT26 = assay: Anti-tumor effect in CT26 tumor-bearing mice (alone and combined with PD-1 monoclonal antibody); conditions: female Balb/c mice; by tumor weight vs control group; compounds 150 mg/kg orally every day; PD-1 monoclonal antibody 10 mg/kg intraperitoneally every three days; combination: both
Excerpt: as §1

Tumor cells GL261 = assay: Anti-tumor effect in GL261 tumor-bearing mice (alone and combined with PD-1 monoclonal antibody); conditions: for Tumor inhibition rate GL261: female C57BL/6 mice, by tumor weight vs control group, compounds 150 mg/kg orally every day, PD-1 monoclonal antibody 10 mg/kg intraperitoneally every three days, combination: both
Excerpt: as §1

Tumor cells H22 = assay: Anti-tumor effect in H22 tumor-bearing mice (alone and combined with PD-1 monoclonal antibody); conditions: female C57BL/6 mice; by tumor weight vs control group; compounds 150 mg/kg orally every day; PD-1 monoclonal antibody 10 mg/kg intraperitoneally every three days; combination: both
Excerpt: as §1

Tumor cells B16F10 = assay: Anti-tumor effect in B16F10 tumor-bearing mice (alone and combined with PD-1 monoclonal antibody); conditions: female C57BL/6 mice; by tumor weight vs control group; compounds 150 mg/kg orally every day; PD-1 monoclonal antibody 10 mg/kg intraperitoneally every three days; combination: both
Excerpt: as §1

[1] = combined administration with the PD-1 monoclonal antibody (text summary of Table 1)

Compound	Tumor inhibition rate PAN02 (Tumor cells PAN02) [%]	Tumor inhibition rate LLC (Tumor cells LLC) [%]	Tumor inhibition rate MFC (Tumor cells MFC) [%]	Tumor inhibition rate CT26 (Tumor cells CT26) [%]	Tumor inhibition rate GL261 (Tumor cells GL261) [%]	Tumor inhibition rate H22 (Tumor cells H22) [%]	Tumor inhibition rate B16F10 (Tumor cells B16F10) [%]	tumor inhibition rate, PAN02 cells (Tumor cells PAN02; [1])	tumor inhibition rate, GL261 cells (Tumor cells GL261; [1])
CN(C)CC1C(=O)O[C@@H]2C[C@@]3(C)CC[C@@H](O)[C@]4(CO4)[C@@H]3C[C@H]12.O=C(O)/C=C/C(=O)O (stereo partly drawn) [Control compound 7, reference compound]	43	44	38	60	39	52	41	–	–
CN(CCO)CC1C(=O)O[C@@H]2C[C@@]3(C)CC[C@@H](O)[C@]4(CO4)[C@@H]3C[C@H]12.O=C(O)/C=C/C(=O)O (stereo partly drawn) [Compound 4]	22	24	27	31	23	26	23	–	–
CN(CCCO)CC1C(=O)O[C@@H]2C[C@@]3(C)CC[C@@H](O)[C@]4(CO4)[C@@H]3C[C@H]12.O=C(O)/C=C/C(=O)O (stereo partly drawn) [Compound 6]	31	29	52	41	29	39	31	up to 89%	up to 89%
C[C@]12CC[C@@H](O)[C@]3(CO3)[C@@H]1C[C@@H]1C(CN(CCO)CCO)C(=O)O[C@@H]1C2.O=C(O)/C=C/C(=O)O (stereo partly drawn) [Compound 5]	19	26	44	52	19	31	24	–	–
